Assays:
[1] = system: human HLA-A24 and β2-microglobulin; assay: MHC-peptide complex formation assay (ELISA), HLA-A24; type: binding; conditions: MHC-peptide formation rate versus positive control peptide
[2] = system: splenocytes from pEK/TAL6-immunized mice; assay: IFN-γ ELISpot on splenocytes of pEK/TAL6 DNA immunized mice stimulated with TAL6 peptides; type: in vivo; conditions: splenocytes from pEK/TAL6-immunized mice stimulated with the peptide; FIG. 3
[3] = system: T cells (spleen cells from HLA-A2 transgenic mice); assay: IFN-γ ELISpot on spleen cells of peptide-immunized HLA-A2 transgenic mice; type: in vivo, HLA-A2 transgenic mouse; conditions: 50 μg peptide with PADRE peptide and IFA s.c. twice; spleen cells cultured with 10 μg/mL test peptide; FIG. 1
Procedure: FIG. 1 is a chart showing induction of interferon γ in spleen cells from HLA-A2 transgenic mice immunized with a number of immunogenic peptides from TAL6: peptides 1 (SEQ ID NO:1), 2 (SEQ ID NO:2), 5 (SEQ ID NO:4), 6 (SEQ ID NO:5), 7 (SEQ ID NO:6), 8 (SEQ ID NO:7), 9 (SEQ ID NO:8), 11 (SEQ ID NO: 10), and 14 (SEQ ID NO:12). “NP” refers to absence of any peptide.
(§1) One mg of each of the peptides (test peptides) that were identified as HLA-A2-restricted T-cell epitopes in Examples 1 above and 1 mg of PADRE peptide ([…]; SEQ ID NO:25), both in 0.5 ml PBS, were mixed together with 0.5 mL incomplete Freund's adjuvant (IFA). An EBV-derived HLA-A2-restricted epitope, i.e., […](GLC; SEQ ID NO:35), was used as a positive control and an EBV-derived HAL-A24-restricted epitope, i.e., TYGPVFMCL (TYG; SEQ ID NO:37), was used as negative control. 100 μl of the mixture (containing 50 μg of a test peptide) was injected s.c. into the tail base of a HLA-A2 transgenic mouse, once every 7 days for two times. Spleen cells were harvested from the treated mice 7 days after the second injection and cultured in the presence of 10 μg/mL of the test peptide. The supernatant of the cell culture was subjected to an ELISpot assy to examine the amount of IFN-γ contained therein, which correlates to the activity of the test peptide for stimulating T cells.

[4] = system: tumor cells EL4/TAL6/HLA-A2; assay: Tumor growth after peptide immunization and transplantation of EL4/TAL6/HLA-A2 tumor cells; type: in vivo, mice
Procedure: FIG. 4 is a chart showing inhibition of tumor growth in mice immunized by immunopeptides derived from TAL6. Tumor volume was calculated using the formula: tumor volume=length×width×width/2. Panel (a): HLA-A2 transgenic mice. Panel (b): Wild-type mice.
Peptide 2 or Peptide 5 listed in Table 1 above, mixed with IFA, was administered subcutaneously to HLA-A2 transgenic mice (50 μg/mouse) or wild-type C57BL/6 mice twice in two weeks. Twenty-one days later, each of the immunized mice was transplanted subcutaneously with 2×10^5 of tumor cells EL4/TAL6/HLA-A2 (EL4 cells stably expressing both TAL6 and HLA-A2) to induce tumor growth in the immunized mice. Sizes of the tumors in the treated mice were monitored every 2-3 days. The tumor volume was calculated using the formula: tumor volume=length×width×width/2.

[5] = system: T cells (spleen cells from HLA-A24 transgenic mice); assay: IFN-γ ELISpot on spleen cells of peptide-immunized HLA-A24 transgenic mice; type: in vivo, HLA-A24 transgenic mouse; conditions: HLA-A24 transgenic mice immunized as in Example 2; FIG. 2
From the text: FIG. 2 is a chart showing induction of interferon γ in spleen cells from HLA-A24 transgenic mice immunized with a number of immunogenic peptides from TAL6: peptides 17 (SEQ ID NO:14), 18 (SEQ ID NO:15), 20 (SEQ ID NO:16), 21 (SEQ ID NO:17), 22 (SEQ ID NO:18), 23 (SEQ ID NO:19), 24 (SEQ ID NO:20), 26 (SEQ ID NO:21), 27 (SEQ ID NO:22), 29 (SEQ ID NO:41), and 30 (SEQ ID NO:23). “N” refers to a negative control and “P” refers to a positive control.
as §1
Each of the peptides (test peptides) that were identified as HLA-A24-restricted T-cell epitopes in Examples 3 above were used to immunize HAL-A24 transgenic mice, following the procedures described in Example 2 above. EBV peptides GLC and TYG were used as a negative control and a positive control, respectively.

[6] = HLA-A2 transgenic mice, 50 μg/mouse peptide with IFA s.c. twice, FIG. 4 panel (a)

Sequence	Relative binding (%) to HLA-A24 [1]	other results
CYGKCARCI (Synthetic HLA-A24 restricted CTL epitope (2-10 aa of TAL6)) [Peptide 17, TAL6 position 2-10]	125.73%	
TFASTEGQYL (Synthetic HLA-A24 restricted CTL epitope (131-140 aa of TAL6)) [Peptide 26, TAL6 position 131-140]	115.71%	
HIVEWNVSLF (Synthetic HLA-A24 restricted CTL epitope (154-163 aa of TAL6)) [Peptide 28, TAL6 position 154-163]	28.03%	
HSLVGLALL (Synthetic HLA-A24 restricted CTL epitope (12-20 aa of TAL6)) [Peptide 18, TAL6 position 12-20]	61.73%	
SLVGLALLC (Synthetic HLA-A2 restricted CTL epitope (13-21 aa of TAL6)) [Peptide 2, TAL6 position 13-21]		IFN-γ-secreting cells activated by test TAL6 peptide [2]: responsive; IFN-γ secretion of T cells [3]: induced IFN-γ secretion of T cells; Inhibition of tumor growth (tumor volume) [4, 6]: reduced tumor growth in the HLA-A2 transgenic mice, albeit in a lower level
FFSGIVGGGL (Synthetic HLA-A24 restricted CTL epitope (49-57 aa of TAL6)) [Peptide 23, TAL6 position 49-57]	72.36%	
QYLLDTSTW (Synthetic HLA-A24 restricted CTL epitope (138-147 aa of TAL6)) [Peptide 27, TAL6 position 138-147]	110.75%	IFN-γ secretion of T cells [5]: induced IFN-γ secretion of T cells
GGIEFILCLI (Synthetic HLA-A24 restricted CTL epitope (170-179 aa of TAL6)) [Peptide 33, TAL6 position 170-179]	14.85%	
GYCVIVAAL (Synthetic HLA-A24 restricted CTL epitope (105-113 aa of TAL6)) [Peptide 24, TAL6 position 105-113]	117.78%	
TFASTEGQY (Synthetic HLA-A24 restricted CTL epitope (131-139 aa of TAL6)) [Peptide 25, TAL6 position 131-139]	49.24%	
LLMLLPAFV (Synthetic HLA-A2 restricted CTL epitope (58-66 aa of TAL6)) [Peptide 5, TAL6 position 58-66]		IFN-γ-secreting cells activated by test TAL6 peptide [2]: responsive; IFN-γ secretion of T cells [3]: induced IFN-γ secretion of T cells; Inhibition of tumor growth (tumor volume) [4, 6]: significantly inhibited tumor growth; Inhibition of tumor growth (tumor volume) ([4]; wild-type C57BL/6 mice, peptide with IFA s.c. twice, FIG. 4 panel (b)): not in the wild-type mice
RFVWFFSGI (Synthetic HLA-A24 restricted CTL epitope (45-53 aa of TAL6)) [Peptide 22, TAL6 position 45-53]	91.88%	
EWNVSLFSIL (Synthetic HLA-A24 restricted CTL epitope (157-166 aa of TAL6)) [Peptide 31, TAL6 position 157-166]	22.24%	
EWNVSLFSI (Synthetic HLA-A24 restricted CTL epitope (157-165 aa of TAL6)) [Peptide 30, TAL6 position 157-165]	74.01%	IFN-γ secretion of T cells [5]: induced IFN-γ secretion of T cells
KYASENHLS (Synthetic HLA-A24 restricted CTL epitope (36-44 aa of TAL6)) [Peptide 21, TAL6 position 36-44]	64.59%	
LYFPNGETKY (Synthetic HLA-A24 restricted CTL epitope (28-36 aa of TAL6)) [Peptide 20, TAL6 position 28-36]	84.95%	
IAANILLYF (Synthetic HLA-A24 restricted CTL epitope (22-30 aa of TAL6)) [Peptide 19, TAL6 position 22-30]	0.00%	
IVEWNVSLF (Synthetic HLA-A24 restricted CTL epitope (155-163 aa of TAL6)) [Peptide 29, TAL6 position 155-163]	41.01%	IFN-γ secretion of T cells [5]: induced IFN-γ secretion of T cells
GGIEFILCL (Synthetic HLA-A24 restricted CTL epitope (170-178 aa of TAL6)) [Peptide 32, TAL6 position 170-178]	25.29%	

From patent US8465756B2, “Immunogenic peptides of tumor associated antigen L6 and uses thereof in cancer therapy” (National Health Research Institutes, priority 2009, dated 2013)
